PubChem BioAssay (NCI)
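At the GI50, growth is halved. TGI denotes the concentration required for complete inhibition of growth.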

Tests used:
Test in all cases: inhibition of tumour cell growth, NCI panel, 384-well format
786-0 renal = system: 786-0 renal
A498 renal = system: A498 renal
A549 NSCLC = system: A549 NSCLC
ACHN renal = system: ACHN renal
BT-549 breast = system: BT-549 breast
CAKI-1 renal = system: CAKI-1 renal
CCRF-CEM leukemia = system: CCRF-CEM leukemia
COLO 205 colon = system: COLO 205 colon
DU-145 prostate = system: DU-145 prostate
EKVX NSCLC = system: EKVX NSCLC
HCC-2998 colon = system: HCC-2998 colon
HCT-116 colon = system: HCT-116 colon
HCT-15 colon = system: HCT-15 colon
HL-60(TB) leukemia = system: HL-60(TB) leukemia
HOP-62 NSCLC = system: HOP-62 NSCLC
HOP-92 NSCLC = system: HOP-92 NSCLC
HS 578T breast = system: HS 578T breast
HT29 colon = system: HT29 colon
IGROV1 ovarian = system: IGROV1 ovarian
K-562 leukemia = system: K-562 leukemia
KM12 colon = system: KM12 colon
LOX IMVI melanoma = system: LOX IMVI melanoma
M14 melanoma = system: M14 melanoma
MALME-3M melanoma = system: MALME-3M melanoma
MCF7 breast = system: MCF7 breast
MDA-MB-468 breast = system: MDA-MB-468 breast
MOLT-4 leukemia = system: MOLT-4 leukemia
NCI-H226 lung = system: NCI-H226 lung
NCI-H23 lung = system: NCI-H23 lung
NCI-H322M lung = system: NCI-H322M lung
NCI-H460 NSCLC = system: NCI-H460 NSCLC
NCI-H522 lung = system: NCI-H522 lung
NCI/ADR-RES ovarian = system: NCI/ADR-RES ovarian
OVCAR-3 ovarian = system: OVCAR-3 ovarian
OVCAR-4 ovarian = system: OVCAR-4 ovarian
OVCAR-5 ovarian = system: OVCAR-5 ovarian
OVCAR-8 ovarian = system: OVCAR-8 ovarian
PC-3 prostate = system: PC-3 prostate
RPMI-8226 leukemia = system: RPMI-8226 leukemia
RXF 393 renal = system: RXF 393 renal
SF-268 CNS = system: SF-268 CNS
SF-295 CNS = system: SF-295 CNS
SF-539 CNS = system: SF-539 CNS
SK-MEL-28 melanoma = system: SK-MEL-28 melanoma
SK-MEL-5 melanoma = system: SK-MEL-5 melanoma
SK-OV-3 ovarian = system: SK-OV-3 ovarian
SN12C renal = system: SN12C renal
SNB-19 CNS = system: SNB-19 CNS
SNB-75 CNS = system: SNB-75 CNS
SW-620 colon = system: SW-620 colon
T-47D breast = system: T-47D breast
TK-10 renal = system: TK-10 renal
U251 glioblastoma = system: U251 glioblastoma
UACC-257 melanoma = system: UACC-257 melanoma
UACC-62 melanoma = system: UACC-62 melanoma
UO-31 renal = system: UO-31 renal

**Q.** How did the GI50 ([…]-0 renal) turn out when CN[C@@H](C)C(=O)N[C@H]1CN(C(=O)CC(C)C)CC[C@H]2CC[C@@H](C(=O)NC(c3ccccc3)c3ccccc3)N2C1=O was run?
**A.** > 100 µM

**Q.** And the TGI (786-0 renal)?
**A.** > 100 µM

**Q.** What about the GI50 (A498 renal) of the same compound?
**A.** > 100 µM

**Q.** And the TGI (A498 renal)?
**A.** > 100 µM

**Q.** What about the GI50 (A549 NSCLC) of the same compound?
**A.** > 100 µM

**Q.** And the TGI (A549 NSCLC)?
**A.** > 100 µM

**Q.** What about the GI50 (ACHN renal) of the same compound?
**A.** > 100 µM

**Q.** What about the TGI (ACHN renal) of the same compound?
**A.** > 100 µM

**Q.** What about the GI50 (BT-549 breast) of the same compound?
**A.** 21.8 µM

**Q.** What about the TGI (BT-549 breast) of the same compound?
**A.** > 100 µM

**Q.** What about the GI50 (CAKI-1 renal) of the same compound?
**A.** > 100 µM

**Q.** And the TGI (CAKI-1 renal)?
**A.** > 100 µM

**Q.** What about the GI50 (CCRF-CEM leukemia) of the same compound?
**A.** 15.8 µM

**Q.** And the TGI (CCRF-CEM leukemia)?
**A.** > 100 µM

**Q.** And the GI50 (COLO 205 colon)?
**A.** > 100 µM

**Q.** What about the TGI (COLO 205 colon) of the same compound?
**A.** > 100 µM

**Q.** What about the GI50 (DU-145 prostate) of the same compound?
**A.** > 100 µM

**Q.** What about the TGI (DU-145 prostate) of the same compound?
**A.** > 100 µM

**Q.** And the GI50 (EKVX NSCLC)?
**A.** > 100 µM

**Q.** And the TGI (EKVX NSCLC)?
**A.** > 100 µM

**Q.** And the GI50 (HCC-2998 colon)?
**A.** 12.5 µM

**Q.** What about the TGI (HCC-2998 colon) of the same compound?
**A.** > 100 µM

**Q.** And the GI50 (HCT-116 colon)?
**A.** > 100 µM

**Q.** What about the TGI (HCT-116 colon) of the same compound?
**A.** > 100 µM

**Q.** What about the GI50 (HCT-15 colon) of the same compound?
**A.** > 100 µM

**Q.** And the TGI (HCT-15 colon)?
**A.** > 100 µM

**Q.** And the GI50 (HL-60(TB) leukemia)?
**A.** 1.56 µM

**Q.** And the TGI (HL-60(TB) leukemia)?
**A.** 12.1 µM

**Q.** And the GI50 (HOP-62 NSCLC)?
**A.** 4.4 µM

**Q.** And the TGI (HOP-62 NSCLC)?
**A.** > 100 µM

**Q.** And the GI50 (HOP-92 NSCLC)?
**A.** 13.8 µM

**Q.** And the TGI (HOP-92 NSCLC)?
**A.** 50.7 µM

**Q.** And the GI50 (HS 578T breast)?
**A.** 16.4 µM

**Q.** And the TGI (HS 578T breast)?
**A.** > 100 µM

**Q.** What about the GI50 (HT29 colon) of the same compound?
**A.** 39.8 µM

**Q.** And the TGI (HT29 colon)?
**A.** > 100 µM

**Q.** What about the GI50 (IGROV1 ovarian) of the same compound?
**A.** > 100 µM

**Q.** And the TGI (IGROV1 ovarian)?
**A.** > 100 µM

**Q.** And the GI50 (K-562 leukemia)?
**A.** 56.6 µM

**Q.** What about the TGI (K-562 leukemia) of the same compound?
**A.** > 100 µM

**Q.** What about the GI50 (KM12 colon) of the same compound?
**A.** > 100 µM

**Q.** What about the TGI (KM12 colon) of the same compound?
**A.** > 100 µM

**Q.** And the GI50 (LOX IMVI melanoma)?
**A.** > 100 µM

**Q.** And the TGI (LOX IMVI melanoma)?
**A.** > 100 µM

**Q.** And the GI50 (M14 melanoma)?
**A.** > 100 µM

**Q.** And the TGI (M14 melanoma)?
**A.** > 100 µM

**Q.** What about the GI50 (MALME-3M melanoma) of the same compound?
**A.** 0.542 µM

**Q.** And the TGI (MALME-3M melanoma)?
**A.** 11 µM

**Q.** And the GI50 (MCF7 breast)?
**A.** 83.8 µM

**Q.** And the TGI (MCF7 breast)?
**A.** > 100 µM

**Q.** What about the GI50 (MDA-MB-468 breast) of the same compound?
**A.** 2.78 µM

**Q.** And the TGI (MDA-MB-468 breast)?
**A.** 72.1 µM

**Q.** What about the GI50 (MOLT-4 leukemia) of the same compound?
**A.** 35.1 µM

**Q.** And the TGI (MOLT-4 leukemia)?
**A.** > 100 µM

**Q.** And the GI50 (NCI-H226 lung)?
**A.** > 100 µM

**Q.** And the TGI (NCI-H226 lung)?
**A.** > 100 µM

**Q.** And the GI50 (NCI-H23 lung)?
**A.** 49 µM

**Q.** And the TGI (NCI-H23 lung)?
**A.** > 100 µM

**Q.** What about the GI50 (NCI-H322M lung) of the same compound?
**A.** > 100 µM

**Q.** And the TGI (NCI-H322M lung)?
**A.** > 100 µM

**Q.** And the GI50 (NCI-H460 NSCLC)?
**A.** > 100 µM

**Q.** And the TGI (NCI-H460 NSCLC)?
**A.** > 100 µM

**Q.** And the GI50 (NCI-H522 lung)?
**A.** 5.58 µM

**Q.** And the TGI (NCI-H522 lung)?
**A.** > 100 µM

**Q.** What about the GI50 (NCI/ADR-RES ovarian) of the same compound?
**A.** > 100 µM

**Q.** What about the TGI (NCI/ADR-RES ovarian) of the same compound?
**A.** > 100 µM

**Q.** And the GI50 (OVCAR-3 ovarian)?
**A.** > 100 µM

**Q.** What about the TGI (OVCAR-3 ovarian) of the same compound?
**A.** > 100 µM

**Q.** And the GI50 (OVCAR-4 ovarian)?
**A.** 0.167 µM

**Q.** What about the TGI (OVCAR-4 ovarian) of the same compound?
**A.** 1.05 µM

**Q.** What about the GI50 (OVCAR-5 ovarian) of the same compound?
**A.** > 100 µM

**Q.** And the TGI (OVCAR-5 ovarian)?
**A.** > 100 µM

**Q.** What about the GI50 (OVCAR-8 ovarian) of the same compound?
**A.** 68.8 µM

**Q.** And the TGI (OVCAR-8 ovarian)?
**A.** > 100 µM

**Q.** And the GI50 (PC-3 prostate)?
**A.** > 100 µM

**Q.** What about the TGI (PC-3 prostate) of the same compound?
**A.** > 100 µM

**Q.** And the GI50 (RPMI-8226 leukemia)?
**A.** 24.4 µM

**Q.** And the TGI (RPMI-8226 leukemia)?
**A.** > 100 µM

**Q.** What about the GI50 (RXF 393 renal) of the same compound?
**A.** 0.823 µM

**Q.** What about the TGI (RXF 393 renal) of the same compound?
**A.** 20 µM

**Q.** And the GI50 (SF-268 CNS)?
**A.** > 100 µM

**Q.** What about the TGI (SF-268 CNS) of the same compound?
**A.** > 100 µM

**Q.** And the GI50 (SF-295 CNS)?
**A.** > 100 µM

**Q.** What about the TGI (SF-295 CNS) of the same compound?
**A.** > 100 µM

**Q.** And the GI50 (SF-539 CNS)?
**A.** > 100 µM

**Q.** What about the TGI (SF-539 CNS) of the same compound?
**A.** > 100 µM

**Q.** What about the GI50 (SK-MEL-28 melanoma) of the same compound?
**A.** > 100 µM

**Q.** And the TGI (SK-MEL-28 melanoma)?
**A.** > 100 µM

**Q.** And the GI50 (SK-MEL-5 melanoma)?
**A.** 3.63 µM

**Q.** What about the TGI (SK-MEL-5 melanoma) of the same compound?
**A.** 21.8 µM

**Q.** What about the GI50 (SK-OV-3 ovarian) of the same compound?
**A.** 0.357 µM

**Q.** What about the TGI (SK-OV-3 ovarian) of the same compound?
**A.** 9.16 µM

**Q.** What about the GI50 (SN12C renal) of the same compound?
**A.** > 100 µM

**Q.** What about the TGI (SN12C renal) of the same compound?
**A.** > 100 µM

**Q.** What about the GI50 (SNB-19 CNS) of the same compound?
**A.** > 100 µM

**Q.** And the TGI (SNB-19 CNS)?
**A.** > 100 µM

**Q.** What about the GI50 (SNB-75 CNS) of the same compound?
**A.** 49.9 µM

**Q.** What about the TGI (SNB-75 CNS) of the same compound?
**A.** > 100 µM

**Q.** And the GI50 (SW-620 colon)?
**A.** > 100 µM

**Q.** And the TGI (SW-620 colon)?
**A.** > 100 µM

**Q.** And the GI50 (T-47D breast)?
**A.** > 100 µM

**Q.** And the TGI (T-47D breast)?
**A.** > 100 µM

**Q.** What about the GI50 (TK-10 renal) of the same compound?
**A.** > 100 µM

**Q.** And the TGI (TK-10 renal)?
**A.** > 100 µM

**Q.** And the GI50 (U251 glioblastoma)?
**A.** > 100 µM

**Q.** And the TGI (U251 glioblastoma)?
**A.** > 100 µM

**Q.** What about the GI50 (UACC-257 melanoma) of the same compound?
**A.** 24.7 µM

**Q.** What about the TGI (UACC-257 melanoma) of the same compound?
**A.** 55 µM

**Q.** And the GI50 (UACC-62 melanoma)?
**A.** > 100 µM

**Q.** And the TGI (UACC-62 melanoma)?
**A.** > 100 µM

**Q.** What about the GI50 (UO-31 renal) of the same compound?
**A.** > 100 µM

**Q.** And the TGI (UO-31 renal)?
**A.** > 100 µM
